Active and inactive are the calls of the source.

What is called Ki is a measure of affinity in units of concentration, obtained from inhibition or displacement. For orientation: EC50 means the concentration giving half of the maximal effect. In general, IC50 refers to the midpoint of a concentration-inhibition curve. As a reminder, the AC50 is the midpoint of the concentration-response curve, whichever way the signal moves.

Assay [1] addresses Serine/threonine-protein kinase PLK3 (Homo sapiens, UniProt Q9H4B4). Type of assay: functional.
Assay [2] deals with ALK tyrosine kinase receptor (Homo sapiens, UniProt Q9UM73). Type of assay: functional.
Assay [3] has as its target Proto-oncogene tyrosine-protein kinase receptor Ret (Homo sapiens, UniProt P07949). Type of assay: functional.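 Note: measured within a kinome-wide profiling panel, RET as the panel member.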
Assay [4] has as its target Mitogen-activated protein kinase 8 (Homo sapiens, UniProt P45983). Type of assay: functional.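 Note: value comes from one member of a kinome-wide kinase profiling panel.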
Assay [5] concerns the target Serine/threonine-protein kinase N2 (Homo sapiens, UniProt Q16513). Type of assay: functional.
The target of assay [6] is Vascular endothelial growth factor receptor 3 (Homo sapiens, UniProt P35916). Type of assay: functional.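 Note: value from a kinome-wide profiling panel, with FLT4 as the panel member.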
Assay [7] has as its target Vascular endothelial growth factor receptor 1 (Homo sapiens, UniProt P17948). Type of assay: functional.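 Note: measured within a kinome-wide profiling panel, FLT1 as the panel member.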
Assay [8] has as its target Lymphokine-activated killer T-cell-originated protein kinase (Homo sapiens, UniProt Q96KB5). Type of assay: functional.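 Note: value comes from a kinase panel screen in which TOPK was one of the panel members.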
Assay [9] concerns the target Mitochondrial peptide methionine sulfoxide reductase (Bos taurus, UniProt P54149). Put plainly: Absorbance-based biochemical high throughput dose response assay for activators of Methionine sulfoxide reductase A (MsrA). Type of assay: functional.
The target of assay [10] is T1, Sentrin-specific protease 8 (Homo sapiens, UniProt Q96LD8).
T1 sequence (Q96LD8 whole entry): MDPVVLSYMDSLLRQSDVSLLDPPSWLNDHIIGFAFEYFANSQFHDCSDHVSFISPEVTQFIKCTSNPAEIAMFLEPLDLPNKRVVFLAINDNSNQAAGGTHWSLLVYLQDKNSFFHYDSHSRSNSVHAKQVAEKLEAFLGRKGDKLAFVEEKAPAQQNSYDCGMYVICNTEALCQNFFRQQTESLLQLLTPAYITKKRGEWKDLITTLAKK
Type of assay: functional.

Assay [11] deals with T2, Caspase-6 (Homo sapiens, UniProt P55212).
T2 sequence (P55212 whole entry): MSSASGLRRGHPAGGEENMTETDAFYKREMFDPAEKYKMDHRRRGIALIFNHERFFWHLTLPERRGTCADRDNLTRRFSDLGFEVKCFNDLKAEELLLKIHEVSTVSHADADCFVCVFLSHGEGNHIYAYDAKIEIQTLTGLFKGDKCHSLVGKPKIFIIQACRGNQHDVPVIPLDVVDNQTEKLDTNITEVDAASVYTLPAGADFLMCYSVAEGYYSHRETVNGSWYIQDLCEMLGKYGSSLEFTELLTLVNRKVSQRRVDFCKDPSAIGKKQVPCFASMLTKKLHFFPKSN
The assay is described as follows: inhibition of CASP6 peptide cleavage – biochemical, VEID-R110 fluorescence, cherry-pick, dose response (AID 720632).

Assay [12] is described as follows: decrease of insulin promoter-GFP reporter – imaging, high-content screening, mouse beta cells (AID 1628). Conditions: MIN6. Type of assay: functional.

Proto-oncogene tyrosine-protein kinase receptor Ret, sequence (P07949 whole entry): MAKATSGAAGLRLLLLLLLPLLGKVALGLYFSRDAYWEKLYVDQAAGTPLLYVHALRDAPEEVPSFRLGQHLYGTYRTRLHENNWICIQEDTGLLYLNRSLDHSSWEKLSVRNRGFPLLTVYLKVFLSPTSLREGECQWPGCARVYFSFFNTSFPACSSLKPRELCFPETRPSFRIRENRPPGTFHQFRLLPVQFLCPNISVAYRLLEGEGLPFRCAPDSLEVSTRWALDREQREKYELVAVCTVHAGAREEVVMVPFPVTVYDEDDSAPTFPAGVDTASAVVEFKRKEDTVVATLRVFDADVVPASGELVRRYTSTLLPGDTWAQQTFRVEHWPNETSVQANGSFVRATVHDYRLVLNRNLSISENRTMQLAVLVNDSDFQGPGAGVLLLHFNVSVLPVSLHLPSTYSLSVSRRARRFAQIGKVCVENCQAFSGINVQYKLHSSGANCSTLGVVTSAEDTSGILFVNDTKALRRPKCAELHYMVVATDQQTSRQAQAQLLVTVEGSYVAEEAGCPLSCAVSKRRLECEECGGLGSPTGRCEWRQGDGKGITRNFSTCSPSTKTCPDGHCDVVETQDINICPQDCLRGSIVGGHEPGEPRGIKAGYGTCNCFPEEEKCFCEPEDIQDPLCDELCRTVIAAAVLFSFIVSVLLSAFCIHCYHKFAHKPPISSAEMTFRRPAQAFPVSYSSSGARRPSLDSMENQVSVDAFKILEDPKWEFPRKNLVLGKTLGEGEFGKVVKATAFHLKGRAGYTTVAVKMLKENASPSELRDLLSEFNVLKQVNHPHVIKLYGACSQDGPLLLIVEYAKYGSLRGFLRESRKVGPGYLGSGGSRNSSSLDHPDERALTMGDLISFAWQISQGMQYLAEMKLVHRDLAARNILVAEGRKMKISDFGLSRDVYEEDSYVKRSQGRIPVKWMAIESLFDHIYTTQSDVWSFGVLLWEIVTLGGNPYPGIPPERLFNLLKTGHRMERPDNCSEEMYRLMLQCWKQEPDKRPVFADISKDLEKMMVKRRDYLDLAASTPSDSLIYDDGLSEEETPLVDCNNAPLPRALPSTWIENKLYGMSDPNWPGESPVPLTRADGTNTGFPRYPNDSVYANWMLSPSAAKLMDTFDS
ALK tyrosine kinase receptor, sequence (Q9UM73 whole entry): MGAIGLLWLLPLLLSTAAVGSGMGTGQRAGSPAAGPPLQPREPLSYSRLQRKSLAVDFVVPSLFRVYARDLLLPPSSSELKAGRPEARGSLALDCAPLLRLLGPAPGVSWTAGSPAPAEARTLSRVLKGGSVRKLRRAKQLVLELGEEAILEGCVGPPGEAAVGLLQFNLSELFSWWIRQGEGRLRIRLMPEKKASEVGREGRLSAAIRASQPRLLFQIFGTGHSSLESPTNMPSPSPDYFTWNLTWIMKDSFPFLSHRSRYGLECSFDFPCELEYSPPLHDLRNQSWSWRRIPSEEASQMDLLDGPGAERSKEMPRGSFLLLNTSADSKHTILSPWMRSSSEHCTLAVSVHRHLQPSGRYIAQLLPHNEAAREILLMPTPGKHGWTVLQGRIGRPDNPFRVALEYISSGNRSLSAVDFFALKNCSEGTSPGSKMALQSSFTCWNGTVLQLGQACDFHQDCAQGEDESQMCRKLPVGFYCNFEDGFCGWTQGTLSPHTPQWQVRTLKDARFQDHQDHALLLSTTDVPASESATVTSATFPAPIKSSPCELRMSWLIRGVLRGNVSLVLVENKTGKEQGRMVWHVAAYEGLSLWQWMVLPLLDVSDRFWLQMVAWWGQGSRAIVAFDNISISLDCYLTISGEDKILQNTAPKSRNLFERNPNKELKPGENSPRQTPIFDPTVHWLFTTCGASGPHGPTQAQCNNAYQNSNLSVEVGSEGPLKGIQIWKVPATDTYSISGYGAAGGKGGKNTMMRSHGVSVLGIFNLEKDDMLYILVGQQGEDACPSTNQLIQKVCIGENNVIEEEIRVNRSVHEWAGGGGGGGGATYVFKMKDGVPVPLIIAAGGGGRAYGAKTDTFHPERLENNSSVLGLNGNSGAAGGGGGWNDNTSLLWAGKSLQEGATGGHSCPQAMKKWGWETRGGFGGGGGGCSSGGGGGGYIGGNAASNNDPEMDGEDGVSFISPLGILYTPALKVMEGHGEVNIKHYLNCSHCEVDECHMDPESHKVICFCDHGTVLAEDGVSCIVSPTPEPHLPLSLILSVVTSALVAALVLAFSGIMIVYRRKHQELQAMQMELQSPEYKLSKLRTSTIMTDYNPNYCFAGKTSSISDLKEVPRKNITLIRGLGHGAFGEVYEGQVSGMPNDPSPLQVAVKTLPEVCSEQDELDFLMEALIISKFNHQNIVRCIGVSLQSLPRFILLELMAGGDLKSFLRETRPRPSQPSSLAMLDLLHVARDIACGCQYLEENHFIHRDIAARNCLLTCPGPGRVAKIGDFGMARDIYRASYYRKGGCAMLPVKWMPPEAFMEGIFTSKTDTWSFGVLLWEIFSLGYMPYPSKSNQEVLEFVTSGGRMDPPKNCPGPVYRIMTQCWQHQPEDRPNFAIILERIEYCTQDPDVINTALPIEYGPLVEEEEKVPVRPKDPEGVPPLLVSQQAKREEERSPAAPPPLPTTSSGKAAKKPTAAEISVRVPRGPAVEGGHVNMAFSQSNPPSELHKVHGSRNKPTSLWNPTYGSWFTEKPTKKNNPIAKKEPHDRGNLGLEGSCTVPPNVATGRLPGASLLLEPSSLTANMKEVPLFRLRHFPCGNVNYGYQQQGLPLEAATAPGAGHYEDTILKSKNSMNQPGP
Lymphokine-activated killer T-cell-originated protein kinase, sequence (Q96KB5 whole entry): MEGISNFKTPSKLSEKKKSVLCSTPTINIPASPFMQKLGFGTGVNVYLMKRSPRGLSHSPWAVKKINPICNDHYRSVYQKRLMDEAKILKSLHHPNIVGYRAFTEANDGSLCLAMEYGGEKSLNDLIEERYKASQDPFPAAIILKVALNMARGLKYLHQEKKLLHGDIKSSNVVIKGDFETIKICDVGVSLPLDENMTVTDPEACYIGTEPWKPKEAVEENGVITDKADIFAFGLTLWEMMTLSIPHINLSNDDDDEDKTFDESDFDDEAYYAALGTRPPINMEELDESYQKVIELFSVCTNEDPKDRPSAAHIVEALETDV
Mitochondrial peptide methionine sulfoxide reductase, sequence (P54149 whole entry): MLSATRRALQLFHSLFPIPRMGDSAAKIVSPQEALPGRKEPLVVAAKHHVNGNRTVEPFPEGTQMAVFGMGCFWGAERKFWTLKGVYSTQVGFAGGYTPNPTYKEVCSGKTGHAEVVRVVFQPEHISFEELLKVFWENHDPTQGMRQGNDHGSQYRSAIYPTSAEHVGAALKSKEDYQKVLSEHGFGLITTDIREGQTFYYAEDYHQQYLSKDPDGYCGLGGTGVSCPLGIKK
Vascular endothelial growth factor receptor 3, sequence (P35916 whole entry): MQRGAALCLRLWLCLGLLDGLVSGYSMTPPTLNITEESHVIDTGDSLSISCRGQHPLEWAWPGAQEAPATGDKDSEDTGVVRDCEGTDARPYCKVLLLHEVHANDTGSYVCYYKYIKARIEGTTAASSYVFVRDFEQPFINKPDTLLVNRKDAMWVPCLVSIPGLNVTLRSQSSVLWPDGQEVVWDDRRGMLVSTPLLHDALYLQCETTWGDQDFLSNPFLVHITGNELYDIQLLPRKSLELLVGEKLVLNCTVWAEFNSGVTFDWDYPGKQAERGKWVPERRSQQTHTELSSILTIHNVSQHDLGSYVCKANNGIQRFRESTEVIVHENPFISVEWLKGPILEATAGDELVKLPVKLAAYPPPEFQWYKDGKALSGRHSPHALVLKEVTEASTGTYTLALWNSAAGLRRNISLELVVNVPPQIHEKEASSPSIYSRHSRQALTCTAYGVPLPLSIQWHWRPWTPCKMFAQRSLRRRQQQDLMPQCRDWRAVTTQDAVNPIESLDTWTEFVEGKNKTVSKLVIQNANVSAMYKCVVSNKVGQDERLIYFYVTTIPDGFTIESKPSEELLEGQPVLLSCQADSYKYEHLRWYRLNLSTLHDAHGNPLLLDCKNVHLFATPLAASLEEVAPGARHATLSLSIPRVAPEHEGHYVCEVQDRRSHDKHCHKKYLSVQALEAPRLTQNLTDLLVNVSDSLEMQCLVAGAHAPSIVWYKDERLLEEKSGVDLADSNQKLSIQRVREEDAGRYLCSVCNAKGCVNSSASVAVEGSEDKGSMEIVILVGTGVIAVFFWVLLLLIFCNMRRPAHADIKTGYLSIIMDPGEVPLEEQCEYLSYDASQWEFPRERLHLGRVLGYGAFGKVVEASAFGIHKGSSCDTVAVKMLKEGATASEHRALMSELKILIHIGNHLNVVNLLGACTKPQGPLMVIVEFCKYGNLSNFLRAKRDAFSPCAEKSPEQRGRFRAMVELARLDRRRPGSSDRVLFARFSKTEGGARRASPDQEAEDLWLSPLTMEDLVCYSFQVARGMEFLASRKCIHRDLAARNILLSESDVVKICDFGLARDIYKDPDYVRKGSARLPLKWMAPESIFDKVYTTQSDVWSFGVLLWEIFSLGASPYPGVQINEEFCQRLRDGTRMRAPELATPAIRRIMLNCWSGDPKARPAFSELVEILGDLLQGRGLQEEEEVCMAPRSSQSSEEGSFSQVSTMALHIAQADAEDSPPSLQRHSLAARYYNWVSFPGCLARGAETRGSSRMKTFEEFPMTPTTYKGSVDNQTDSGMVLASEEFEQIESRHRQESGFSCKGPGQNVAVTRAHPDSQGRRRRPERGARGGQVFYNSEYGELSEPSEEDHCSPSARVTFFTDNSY
Mitogen-activated protein kinase 8, sequence (P45983 whole entry): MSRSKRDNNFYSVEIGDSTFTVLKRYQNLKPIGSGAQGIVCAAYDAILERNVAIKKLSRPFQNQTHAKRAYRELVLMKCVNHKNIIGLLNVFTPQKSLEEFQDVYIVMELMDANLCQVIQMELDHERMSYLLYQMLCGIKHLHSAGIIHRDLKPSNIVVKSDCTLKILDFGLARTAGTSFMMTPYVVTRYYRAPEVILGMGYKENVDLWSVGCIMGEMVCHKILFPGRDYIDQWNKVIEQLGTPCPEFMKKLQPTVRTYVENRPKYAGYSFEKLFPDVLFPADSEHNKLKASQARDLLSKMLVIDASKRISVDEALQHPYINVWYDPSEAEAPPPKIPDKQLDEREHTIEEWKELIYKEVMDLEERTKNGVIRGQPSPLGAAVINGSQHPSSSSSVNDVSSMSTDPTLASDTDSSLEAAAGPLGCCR

As to `OC1CCC(Nc2cc(Cl)nc(-c3c[nH]c4ncccc34)n2)CC1` (configuration not stated), the Ki was 3.98 µM (active) in assay [1]; > 2.51 µM (inactive) in [2]; > 2.51 µM (inactive) in [3]; 2.51 µM (active) in [4]; 12.6 nM (active) in assay [5]; 63.1 nM (active) in assay [6]. Moreover, the Ki in assay [7] was > 1.58 µM (inactive); in assay [8], 3.98 µM (active).
On to `O=C(COC(=O)c1ccc([N+](=O)[O-])s1)NCCc1ccccc1`, for which the EC50 in assay [9] is 22.1 µM (inactive). In addition, in [10], the IC50 is 2.82 µM (active). For the same compound, the AC50 in assay [11] was 11 µM (active).
For `COCC/N=c1\scc(-c2cccs2)n1/N=C/c1ccc(O)c(O)c1O`, the IC50 in assay [12] is > 16 µM (inactive).

For the origin of these results see ChEMBL document CHEMBL1201862, “PubChem BioAssay data set” (2004).
